Data on 6 compounds can be found in ChEMBL document CHEMBL4732135, “Structural and mechanistic insights into the inhibition of amyloid-β aggregation by Aβ fragment derived synthetic peptides” (Eur J Med Chem, 2021).

Usually inhibition stands for the change of the read-out against control, counted positive when it falls.

Structures are written as SMILES. Square brackets hold non-standard residues; d marks the D form. Peptide text beside a SMILES is read from it. ξ: configuration not given here. Oic(3aξ,7aξ) = O=C(O)[C@@H]1CC2CCCCC2N1; Tle = CC(C)(C)[C@H](N)C(=O)O; NMeNva = CCC[C@H](NC)C(=O)O; Ac5c = NC1(C(=O)O)CCCC1; Abu = CC[C@H](N)C(=O)O

Amyloid-beta precursor protein (Homo sapiens), sequence (P05067 whole entry): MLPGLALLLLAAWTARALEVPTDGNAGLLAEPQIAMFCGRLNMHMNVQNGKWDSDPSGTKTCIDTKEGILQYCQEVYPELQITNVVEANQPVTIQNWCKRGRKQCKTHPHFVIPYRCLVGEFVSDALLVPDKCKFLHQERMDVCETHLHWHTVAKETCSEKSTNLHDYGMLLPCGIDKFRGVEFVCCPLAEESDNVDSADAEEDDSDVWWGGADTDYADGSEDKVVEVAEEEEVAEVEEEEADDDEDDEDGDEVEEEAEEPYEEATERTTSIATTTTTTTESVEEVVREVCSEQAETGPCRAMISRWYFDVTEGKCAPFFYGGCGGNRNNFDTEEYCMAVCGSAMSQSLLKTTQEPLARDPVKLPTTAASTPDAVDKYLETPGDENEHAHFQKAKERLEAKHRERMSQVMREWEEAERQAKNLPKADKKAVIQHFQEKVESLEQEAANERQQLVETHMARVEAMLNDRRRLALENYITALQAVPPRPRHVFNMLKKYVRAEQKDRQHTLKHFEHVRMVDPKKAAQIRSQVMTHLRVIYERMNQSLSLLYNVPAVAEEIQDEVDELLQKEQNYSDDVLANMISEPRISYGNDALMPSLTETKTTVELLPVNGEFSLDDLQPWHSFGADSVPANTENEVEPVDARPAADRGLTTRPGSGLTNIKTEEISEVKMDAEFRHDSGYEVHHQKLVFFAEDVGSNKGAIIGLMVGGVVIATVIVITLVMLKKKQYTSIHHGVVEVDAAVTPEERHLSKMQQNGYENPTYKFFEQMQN

In one assay the test system is PC-12. Nature of the assay: Neuroprotective activity against amyloid beta 42-induced toxicity in rat PC-12 cells assessed as cell viability at 4 uM measured after 6 hrs by MTT assay (reference value: 74.05%). The settings on record: read-out: Activity. Type of assay: functional. (Tetrazolium dyes change colour on reduction, which living cells bring about.)
With `CCC[C@@H](C(=O)N[C@@H](C)C(=O)O)N(C)C(=O)[C@@H](NC(=O)[C@@H](N)C(C)C)C(C)C` (H-VV[NMeNva]A-OH), the viability at 4 µM amounted to 83.7%.

As for `CC(C)[C@H](N)C(=O)N[C@H](C(=O)N1C2CCCCC2C[C@H]1C(=O)N[C@@H](C)C(=O)O)C(C)C` (stereo partly specified) (H-VV[Oic(3aξ,7aξ)]A-OH), the viability at 4 µM is 78.4%.

`CC(C)[C@H](N)C(=O)N[C@H](C(=O)N[C@H](C(=O)N[C@@H](C)C(=O)O)C(C)(C)C)C(C)C` (H-VV[Tle]A-OH): the viability at 4 µM worked out at 69.2%.

On to `CC[C@H](NC(=O)[C@@H](N)C(C)C)C(=O)N[C@H](C(=O)N[C@@H](C)C(=O)O)[C@@H](C)CC` (H-V[Abu]IA-OH), for which the viability at 4 µM stood at 70.8%.

With `CC[C@H](C)[C@H](NC(=O)C1(NC(=O)[C@@H](N)C(C)C)CCCC1)C(=O)N[C@@H](C)C(=O)O` (H-V[Ac5c]IA-OH), the viability at 4 µM was 97.1%.

On to `CC[C@H](C)[C@H](NC(=O)[C@@H](NC(=O)[C@@H](N)C(C)C)C(C)(C)C)C(=O)N[C@@H](C)C(=O)O` (H-V[Tle]IA-OH), for which the viability at 4 µM turned out to be 91.3%.

A further assay relates to PC-12. Nature of the assay: Neuroprotective activity against amyloid beta 42-induced toxicity in rat PC-12 cells assessed as cell viability at 2 uM measured after 6 hrs by MTT assay (reference value: 74.05%). Particulars: read-out: Activity. Type of assay: functional.
As to `CCC[C@@H](C(=O)N[C@@H](C)C(=O)O)N(C)C(=O)[C@@H](NC(=O)[C@@H](N)C(C)C)C(C)C` (H-VV[NMeNva]A-OH), the viability at 2 µM came to 87.3%.

With `CC(C)[C@H](N)C(=O)N[C@H](C(=O)N1C2CCCCC2C[C@H]1C(=O)N[C@@H](C)C(=O)O)C(C)C` (stereo partly specified) (H-VV[Oic(3aξ,7aξ)]A-OH), the viability at 2 µM amounted to 60%.

Regarding `CC(C)[C@H](N)C(=O)N[C@H](C(=O)N[C@H](C(=O)N[C@@H](C)C(=O)O)C(C)(C)C)C(C)C` (H-VV[Tle]A-OH), the viability at 2 µM worked out at 78.1%.

As to `CC[C@H](NC(=O)[C@@H](N)C(C)C)C(=O)N[C@H](C(=O)N[C@@H](C)C(=O)O)[C@@H](C)CC` (H-V[Abu]IA-OH), the viability at 2 µM is 90.1%.

With `CC[C@H](C)[C@H](NC(=O)C1(NC(=O)[C@@H](N)C(C)C)CCCC1)C(=O)N[C@@H](C)C(=O)O` (H-V[Ac5c]IA-OH), the viability at 2 µM is 89%.

As for `CC[C@H](C)[C@H](NC(=O)[C@@H](NC(=O)[C@@H](N)C(C)C)C(C)(C)C)C(=O)N[C@@H](C)C(=O)O` (H-V[Tle]IA-OH), the viability at 2 µM amounted to 89.3%.

Another assay addresses Amyloid-beta precursor protein (Homo sapiens) (UniProt P05067). The experiment in a line: Inhibition of amyloid beta (1 to 42) (unknown origin) assessed as reduction in peptide aggregation at 4 uM measured after 24 hrs by thioflavin-T fluorescence assay relative to control.
Conditions: not given
Take `CCC[C@@H](C(=O)N[C@@H](C)C(=O)O)N(C)C(=O)[C@@H](NC(=O)[C@@H](N)C(C)C)C(C)C` (H-VV[NMeNva]A-OH): the inhibition is 34.9%.

With `CC(C)[C@H](N)C(=O)N[C@H](C(=O)N1C2CCCCC2C[C@H]1C(=O)N[C@@H](C)C(=O)O)C(C)C` (stereo partly specified) (H-VV[Oic(3aξ,7aξ)]A-OH), the inhibition was 19.3%.

Turning to `CC(C)[C@H](N)C(=O)N[C@H](C(=O)N[C@H](C(=O)N[C@@H](C)C(=O)O)C(C)(C)C)C(C)C` (H-VV[Tle]A-OH), the inhibition is 0%.

`CC[C@H](NC(=O)[C@@H](N)C(C)C)C(=O)N[C@H](C(=O)N[C@@H](C)C(=O)O)[C@@H](C)CC` (H-V[Abu]IA-OH): the inhibition came out at 5.3%.

For `CC[C@H](C)[C@H](NC(=O)C1(NC(=O)[C@@H](N)C(C)C)CCCC1)C(=O)N[C@@H](C)C(=O)O` (H-V[Ac5c]IA-OH), the inhibition came to 100%.

For `CC[C@H](C)[C@H](NC(=O)[C@@H](NC(=O)[C@@H](N)C(C)C)C(C)(C)C)C(=O)N[C@@H](C)C(=O)O` (H-V[Tle]IA-OH), the inhibition was found to be 100%.

The next assay has the same target. Nature of the assay: Inhibition of amyloid beta (1 to 42) (unknown origin) assessed as reduction in peptide aggregation at 2 uM measured after 24 hrs by thioflavin-T fluorescence assay relative to control.
Conditions: not given
With `CCC[C@@H](C(=O)N[C@@H](C)C(=O)O)N(C)C(=O)[C@@H](NC(=O)[C@@H](N)C(C)C)C(C)C` (H-VV[NMeNva]A-OH), the inhibition stood at 22.2%.

Regarding `CC(C)[C@H](N)C(=O)N[C@H](C(=O)N1C2CCCCC2C[C@H]1C(=O)N[C@@H](C)C(=O)O)C(C)C` (stereo partly specified) (H-VV[Oic(3aξ,7aξ)]A-OH), the inhibition was determined as 37.2%.

In the case of `CC(C)[C@H](N)C(=O)N[C@H](C(=O)N[C@H](C(=O)N[C@@H](C)C(=O)O)C(C)(C)C)C(C)C` (H-VV[Tle]A-OH), the inhibition is 0%.

For `CC[C@H](NC(=O)[C@@H](N)C(C)C)C(=O)N[C@H](C(=O)N[C@@H](C)C(=O)O)[C@@H](C)CC` (H-V[Abu]IA-OH), the inhibition was 0%.

Consider `CC[C@H](C)[C@H](NC(=O)C1(NC(=O)[C@@H](N)C(C)C)CCCC1)C(=O)N[C@@H](C)C(=O)O` (H-V[Ac5c]IA-OH), for which the inhibition came to 100%.

As to `CC[C@H](C)[C@H](NC(=O)[C@@H](NC(=O)[C@@H](N)C(C)C)C(C)(C)C)C(=O)N[C@@H](C)C(=O)O` (H-V[Tle]IA-OH), the inhibition stood at 100%.

Another assay shares this target. Nature of the assay: Inhibition of amyloid beta (1 to 42) (unknown origin) assessed as reduction in peptide aggregation at 10 uM measured after 24 hrs by thioflavin-T fluorescence assay relative to control.
Conditions: not given
Turning to `CCC[C@@H](C(=O)N[C@@H](C)C(=O)O)N(C)C(=O)[C@@H](NC(=O)[C@@H](N)C(C)C)C(C)C` (H-VV[NMeNva]A-OH), the inhibition was 40.8%.

Take `CC(C)[C@H](N)C(=O)N[C@H](C(=O)N1C2CCCCC2C[C@H]1C(=O)N[C@@H](C)C(=O)O)C(C)C` (stereo partly specified) (H-VV[Oic(3aξ,7aξ)]A-OH): the inhibition came to 46.4%.

Regarding `CC(C)[C@H](N)C(=O)N[C@H](C(=O)N[C@H](C(=O)N[C@@H](C)C(=O)O)C(C)(C)C)C(C)C` (H-VV[Tle]A-OH), the inhibition worked out at 0%.

With `CC[C@H](NC(=O)[C@@H](N)C(C)C)C(=O)N[C@H](C(=O)N[C@@H](C)C(=O)O)[C@@H](C)CC` (H-V[Abu]IA-OH), the inhibition worked out at 24.1%.

Turning to `CC[C@H](C)[C@H](NC(=O)C1(NC(=O)[C@@H](N)C(C)C)CCCC1)C(=O)N[C@@H](C)C(=O)O` (H-V[Ac5c]IA-OH), the inhibition came to 100%.

For the compound `CC[C@H](C)[C@H](NC(=O)[C@@H](NC(=O)[C@@H](N)C(C)C)C(C)(C)C)C(=O)N[C@@H](C)C(=O)O` (H-V[Tle]IA-OH), the inhibition is 100%.

The test system of the next assay is PC-12. Nature of the assay: Neuroprotective activity against amyloid beta 42-induced toxicity in rat PC-12 cells assessed as cell viability at 10 uM measured after 6 hrs by MTT assay (reference value: 74.05%). Type of assay: functional. The settings on record: read-out: Activity.
On to `CCC[C@@H](C(=O)N[C@@H](C)C(=O)O)N(C)C(=O)[C@@H](NC(=O)[C@@H](N)C(C)C)C(C)C` (H-VV[NMeNva]A-OH), for which the viability at 10 µM is 82.1%.

As to `CC(C)[C@H](N)C(=O)N[C@H](C(=O)N1C2CCCCC2C[C@H]1C(=O)N[C@@H](C)C(=O)O)C(C)C` (stereo partly specified) (H-VV[Oic(3aξ,7aξ)]A-OH), the viability at 10 µM was 86.1%.

As for `CC(C)[C@H](N)C(=O)N[C@H](C(=O)N[C@H](C(=O)N[C@@H](C)C(=O)O)C(C)(C)C)C(C)C` (H-VV[Tle]A-OH), the viability at 10 µM came out at 82.7%.

`CC[C@H](NC(=O)[C@@H](N)C(C)C)C(=O)N[C@H](C(=O)N[C@@H](C)C(=O)O)[C@@H](C)CC` (H-V[Abu]IA-OH): the viability at 10 µM was 82.7%.

For the compound `CC[C@H](C)[C@H](NC(=O)C1(NC(=O)[C@@H](N)C(C)C)CCCC1)C(=O)N[C@@H](C)C(=O)O` (H-V[Ac5c]IA-OH), the viability at 10 µM was 100%.

As to `CC[C@H](C)[C@H](NC(=O)[C@@H](NC(=O)[C@@H](N)C(C)C)C(C)(C)C)C(=O)N[C@@H](C)C(=O)O` (H-V[Tle]IA-OH), the viability at 10 µM was found to be 100%.
